In patent US10596166B2, “Combination composition comprising huperzine” (priority 2015, dated 2020):

Experiments:
ALS patients = settings: several months; cited from earlier work
[1] = tested on: primary cortical neurons injured by glutamate; assay: glutamate toxicity on primary cortical neurons (neuron survival, neurite network); assay type: cell-based, rat; settings: glutamate 40 μM, 20 min
Method: Rat cortical neurons were cultured as described by Singer et al., 1999 [J. Neuroscience 19(7), 2455-2463] and Callizot et al. 2013 [J. Neurosc. Res. 91(5), 706-716].
Briefly, pregnant females (Wistar; JanvierLabs, St Berthevin, France) at 15 days of gestation were killed by cervical dislocation. Foetuses were collected and immediately placed in ice-cold L15 Leibovitz medium (Pan Biotech, Aidenbach, Germany, Batch: 4120413) with a 2% penicillin (10,000 U/ml) and streptomycin (10 mg/ml) solution (PS; Pan Biotech, Aidenbach, Germany) and 1% bovine serum albumin (BSA; Pan Biotech, Aidenbach, Germany). Cortex was treated for 20 min at 37° C. with a trypsin-EDTA (Pan Biotech, Aidenbach, Germany) solution at a final concentration of 0.05% trypsin and 0.02% EDTA. The dissociation was stopped by addition of Dulbecco's modified Eagle's medium (DMEM) with 4.5 g/liter of glucose (Pan Biotech, Aidenbach, Germany), containing DNAse I grade II (final concentration 0.5 mg/ml; Pan Biotech, Germany) and 10% fetal calf serum (FCS; Invitrogen, Cergy Pointoise, France). Cells were mechanically dissociated by three forced passages through the tip of a 10-ml pipette. Cells were then centrifuged at 515 g for 10 min at 4° C. The supernatant was discarded, and the pellet was resuspended in a defined culture medium consisting of Neurobasal medium (Invitrogen, Cergy Pointoise, France) with a 2% solution of B27 supplement (Invitrogen, Cergy Pointoise, France), 2 mmol/liter of L-glutamine (Pan Biotech, Aidenbach, Germany), 2% of PS solution, and 10 ng/ml of brain-derived neurotrophic factor (BDNF; Pan Biotech, Aidenbach, Germany). Viable cells were counted in a Neubauer cytometer, using the trypan blue exclusion test. The cells were seeded at a density of 30,000 per well in 96-well plates precoated with poly-L-lysine (Corning Biocoat, Tewksbury, USA) and were cultured at 37° C. in an air (95%)-CO2 (5%) incubator. The medium was changed every 2 days.
On day 13, the cultures were exposed for 20 minutes to glutamate 40 μM in the absence or presence of Huperzia serrata extracts. Then the cells were washed out and new fresh medium containing or not Huperzia serrata extracts was added for another 48 hours.
The cells were then fixed by a cold solution ethanol/acetic acid (95:5 v/v) for 5 minutes at −20° C. After permeabilization with 0.1% of saponin (Sigma), cells were incubated for 2 hours with mouse monoclonal antibody against microtubule-associated-protein 2 (MAP 2; Sigma) at dilution of 1/400 in PBS containing 1% foetal calf serum (Invitrogen) and 0.1% of saponin.
Neuron survival assessment: For each condition 6 wells were assessed, 20 pictures per well were taken using InCell Analyzer™ 1000 (GE Healthcare) with 20× magnification to assess cell bodies (MAP 2 staining). Analysis of picture was done using Developer software (GE Healthcare), the number of neurons per picture was recorded. A mean of neuron number of the 20 pictures was automatically calculated per well, then one data was provided per well (total of 6 raw data were provided per condition).
Neurite network length assessment: For each condition 6 wells were assessed, 20 pictures per well were taken using InCell Analyzer™ 1000 with 20× magnification (20 pictures at X20 representing ˜80% of the total well surface), to assess MAP-2 staining. Analysis of picture was done using Developer software, the total neurite length per picture was recorded. A mean neurite length of the 20 pictures was automatically calculated per well, then one data was provided per well (total of 6 raw data were provided per condition).
The protocol used in these assays is the same as described in example 1. After 13 days of neuron culture, the candidate compounds were solved in DMSO and diluted in culture medium. […]

mice = settings: adult and aged mice; cited from earlier work

Q: With Nc1nc2ccc(OC(F)(F)F)cc2s1 [Riluzole] as the molecule, how does the prolongation of survival (ALS patients) read?
A: ~7%

Q: With O=C(O)/C=C/c1ccc(O)cc1 [pCouA, para-coumaric acid] as the molecule, how does the neuron survival ([1]; 100 nM and 1 μM) read?
A: ~80%

Q: What about the neurite network ([1]; only 1 μM) of the same molecule?
A: protective effect

Q: And the “survival and neurite network” value ([1]; p-CouA at the lowest concentrations)?
A: inactive

Q: Which “memory retention and memory retrieval” value (mice) does the source give for CC1=C[C@H]2Cc3[nH]c(=O)ccc3[C@]3(C1)NCCC[C@H]23 [HupB, Huperzine B] here?
A: improved memory retention and memory retrieval

Q: For O=C(O)c1cc(O)c(O)c(O)c1 [GA, gallic acid], which neuron survival ([1]; 10 and 50 μM) is on record?
A: ~80%

Q: What about the neurite network ([1]; GA 10 pM to 50 μM) of the same molecule?
A: no protection

Q: Which neuron survival ([1]; 100, 10 and 1 nM) does the source give for COc1cc(/C=C/C(=O)O)cc(OC)c1O [SA, sinapic acid] here?
A: ~80%

Q: What about the neurite network ([1]; SA 10 pM to 50 μM) of the same molecule?
A: no protective effect

Q: What about the neuron survival ([1]; SA at the lowest concentrations) of the same molecule?
A: inactive
